In paper PMC11767451, “Novel Approaches to Monitor Pharmacokinetics and Metabolism of Gemcitabine-Ibandronate Conjugate in Mice and Dogs” (Molecules, 2025):
Where two headings read alike, the source gives them in different places.

Tests used:
[1] = Stability in dog plasma (accelerated, freeze-thaw, frozen PK samples); assay type: in vitro ADME; settings: for %-ACC, frozen PK sample stability: dog plasma PK samples re-extracted after 1.5 years at <−70 °C; for %-ACC (% accuracy vs nominal): 3 freeze-thaw cycles (<−70 °C / bench)
Description: (§1) For stability testing, QC samples were prepared by spiking plasma with QC stock solutions. These stability samples were stored for the predetermined time periods before extraction (accelerated stability and freeze–thaw stability) or after extraction (autosampler stability) and were run with freshly prepared calibrator standards. For accelerated stability, samples were stored at 4 °C and at room temperature for 4 h and 24 h prior to sample extraction. […] Assay A compounds (GEM-IB and IB) were also tested at 1 h and 2 h exposed to 4 °C and at room temperature to evaluate for which duration GEM-IB is stable.
(§2) Freeze–thaw cycle stability was assessed by storing the stability samples overnight in the freezer (<−70 °C) and thawing them the next day on the bench. Once thawed, samples were placed back into the freezer. This was carried out for three freeze–thaw cycles for all compounds.
(§3) To assess the stability of study samples, PK samples were re-extracted after storage at <−70 °C for 1.5 years (see Supplementary Table S4).
(§4) Method development and validation was conducted following applicable FDA guidelines for bioanalytical assays, as considered fit for purpose. Specificity. Endogenous interferences were excluded by analysis of blank plasma from 6 different individual lots of plasma. The lower limit of quantification (LLOQ) was determined as the lowest concentration consistently achieving an accuracy better than ±20% of the nominal concentration, with imprecision ≤20%. Predefined acceptance criteria. The performance of the assay was considered acceptable if intra- and inter-day imprecision (coefficient of variance, %CV) at each concentration was ≤15%, except at the LLOQ (≤20%). Intra- and inter-day accuracy had to be ±15% of the nominal value, except at the LLOQ (±20%). Calibration curves had to have a correlation coefficient (r) of 0.99 or better. Analytical recovery and imprecision. Intra- and inter-day analytical accuracy and imprecision were tested at least at four concentration levels depending on the LLOQ for each compound. Intra-day imprecision and accuracy were determined with n = 6 per QC level. Inter-day imprecision and accuracy were measured over 3 days, with six replicates for each QC concentration (n = 18). Extraction efficiency and matrix effect. Extraction efficiency for GEM-IB and metabolites was established by comparing the signals of the analytes after the extraction of QCs (n = 6/concentrations), with the signals of the extracted blank matrix spiked with the respective concentrations of analytes after the extraction procedure. The matrix effect was determined by comparing the analyte LC-MS/MS signal after spiking of the analyte into the extracted blank matrix (matrix from 6 different individual lots, analyte concentrations as for the QC samples) with the HPLC-MS/MS signal of the same amount of analyte in neat solution [25]. Carry-over. Carry-over was assessed by injecting blank buffer samples after analysis of the highest calibrators. Carry-over was considered insignificant if there was no signal at the relevant retention times exceeding 20% of the analyte signals at the LLOQ. Stability. QC samples were freshly prepared. One set was extracted and was analyzed immediately to determine baseline signals.

[2] = cited from earlier work
[3] = Stability in mouse plasma (accelerated, freeze-thaw, frozen PK samples); assay type: in vitro ADME; settings: for %-ACC, frozen PK sample stability: mouse plasma PK samples re-extracted after 1.5 years at <−70 °C; for %-ACC (% accuracy vs nominal): 3 freeze-thaw cycles (<−70 °C / bench)
Description: as §1, §2, §3, §4

[4] = set-up: method as in PMID 33744463; settings: (enriched) mouse plasma; cited from earlier work
[5] = Autosampler stability of extracted mouse plasma samples at 4 °C; assay type: physicochemical
Description: The stability of extracted dog and mouse plasma samples in the autosampler at 4 °C was established for 24 and 48 h. Except for GEM-IB, in mouse and dog plasma extracts, all analytes were within ±20% of the nominal enriched concentration for up to 48 h in the autosampler. GEM-IB was stable for up to 24 h under these conditions.
as §4, with “signals. Analyte stability in plasma was evaluated at two QC concentration levels (n = 3/concentration level) under different conditions: 1, 2, and 24 h at room temperature and at 4 °C. In addition, stability after extraction was determined after 24 h and 48 h at 4 °C in the autosampler and for up to 3 freeze (−70 °C)–thaw (ambient) cycles. Stability was assessed by comparing analyte concentrations with baseline (t0) concentrations. Stability was assumed when the results were within ±20% of the baseline concentrations. Long-term stability estimates were performed by re-extraction of samples used during the PK study (n = 6). Samples were initially analyzed for the PK assessment and were stored for 1.5 years (GEM-IB and IB) and 2.5 years (GEM, GEMMP, dFdU, and dFdU-MP) at <−70 °C prior to reanalysis. Stability was assessed by comparing analyte concentrations with the initial assessments. Stability was acceptable when the results were within ±20% of the baseline concentrations and the percent standard deviation (%-SD) was below 25%.” for “signals.”

[6] = Stability in dog plasma (accelerated, freeze-thaw, frozen PK samples); assay type: in vitro ADME; settings: dog plasma PK samples re-extracted after 2.5 years at <−70 °C
[7] = Stability in mouse plasma (accelerated, freeze-thaw, frozen PK samples); assay type: in vitro ADME; settings: mouse plasma PK samples re-extracted after 2.5 years at <−70 °C
[8] = dog plasma, 2 hours 4°C (IB and GEM-IB, footnote)
[9] = dog plasma, 2 hours RT (IB and GEM-IB, footnote)
[10] = mouse plasma, 2 hours 4°C / on ice (IB and GEM-IB, footnote)
[11] = mouse plasma, 2 hours RT (IB and GEM-IB, footnote)

Row | Structure (SMILES) | %-ACC, frozen PK sample stability [1] | %-ACC (% accuracy vs nominal) ([1]; dog plasma) [%] | %-ACC (percent mean accuracy vs nominal) ([1]; dog plasma, 4 hours 4°C) [%] | %-ACC (percent mean accuracy vs nominal) ([1]; dog plasma, 4 hours RT) [%] | %-ACC (percent mean accuracy vs nominal) ([1]; dog plasma, 24 hours 4°C) [%] | %-ACC (percent mean accuracy vs nominal) ([1]; dog plasma, 24 hours RT) [%] | %-ACC, frozen PK sample stability [3] | %-ACC (% accuracy vs nominal) ([3]; mouse plasma) [%] | %-ACC (percent mean accuracy vs nominal) ([3]; mouse plasma, 4 hours 4°C) [%] | %-ACC (percent mean accuracy vs nominal) ([3]; mouse plasma, 4 hours RT) [%] | %-ACC (percent mean accuracy vs nominal) ([3]; mouse plasma, 24 hours 4°C) [%] | %-ACC (percent mean accuracy vs nominal) ([3]; mouse plasma, 24 hours RT) [%] | duration stable in mouse plasma [4] | %-ACC (% accuracy vs nominal) ([5]; 24 hours autosampler 4 °C) [%] | %-ACC (% accuracy vs nominal) ([5]; 48 hours autosampler 4 °C) [%] | %-ACC (percent mean accuracy vs nominal) [1, 8] [%] | %-ACC (percent mean accuracy vs nominal) [1, 9] [%] | %-ACC (percent mean accuracy vs nominal) [3, 10] [%] | %-ACC, frozen PK sample stability [6] [%] | %-ACC, frozen PK sample stability [7] [%] | also measured
1 | Nc1ccn([C@@H]2O[C@H](CO)[C@@H](O)C2(F)F)c(=O)n1 [GEM, gemcitabine] | 90.4% ± 23.9 | 103.4 | 102.7 | 101.7 | 94.8 | 95.4 | 94.2% ± 11.8 | 103.4 | 94.5 | 89.3 | 87.9 | 91.0 | up to 42 days | 102.0 | 107.0 | – | – | – | – | – | duration stable in human plasma ([2]; −70 °C): up to 30 days
2 | CCCCCN(C)CCC(O)(P(=O)(O)O)P(=O)(O)OP(=O)(O)OC[C@H]1O[C@@H](n2ccc(N)nc2=O)C(F)(F)[C@@H]1O (stereo partly drawn) [GEM-IB] | – | 84.7 | – | – | 83.6 | 13.7 | – | 16.9 | – | – | 2.9 | 0.0 | – | 96.8 | 59.7 | 99.3 | 83.5 | 64.2 | – | – | time stable on ice ([1]; dog plasma, on ice): up to 24 h; percent of the nominal concentration ([3]; mouse plasma, 1 h on ice): 89.2% ± 7.0; %-ACC (percent mean accuracy vs nominal) [3, 11]: 31.0%; time stable on ice ([3]; mouse plasma, on ice): up to 1 h
3 | Nc1ccn([C@@H]2O[C@H](COP(=O)(O)O)[C@@H](O)C2(F)F)c(=O)n1 [GEMMP, gemcitabine-5′-phosphate] | failed the criteria | 92.4 | 89.5 | 98.2 | 88.1 | 98.2 | failed the criteria | 92.4 | 91.9 | 87.9 | 91.4 | 88.1 | – | 96.9 | 100.4 | – | – | – | 58.1 | 64.0 | –
4 | CCCCCN(C)CCC(O)(P(=O)(O)O)P(=O)(O)O [IB, ibandronate] | – | 106.5 | – | – | 108.8 | 118.5 | – | 94.5 | – | – | 99.7 | 101.7 | – | 97.6 | 98.6 | 99.3 | 101.0 | 97.0 | – | – | accelerated stability, result in words ([1]; dog plasma, up to 24 h at 4 °C / on ice and room temperature): stable; duration stable in human plasma ([2]; −20 °C): up to 4 months; %-ACC (percent mean accuracy vs nominal) [3, 11]: 106.4%; accelerated stability, result in words ([3]; mouse plasma, up to 24 h at 4 °C / on ice and room temperature): stable; freeze–thaw stability, result in words ([3]; one and two freeze–thaw cycles, matrix not stated, presumably mouse plasma): stable
5 | O=c1ccn([C@@H]2O[C@H](CO)[C@@H](O)C2(F)F)c(=O)[nH]1 [dFdU, 2′,2′-difluoro-2′-deoxyuridine] | failed the criteria | 109.5 | 100.5 | 101.3 | 105.3 | 98.4 | failed the criteria | 109.5 | 84.5 | 83.8 | 87.0 | 85.2 | up to 42 days | 103.9 | 103.4 | – | – | – | 63.4 | 71.5 | –
6 | O=c1ccn([C@@H]2O[C@H](COP(=O)(O)O)[C@@H](O)C2(F)F)c(=O)[nH]1 [dFdUMP, 2′,2′-difluoro-2′-deoxyuridine-5′-phosphate] | failed the criteria | 87.7 | 84.2 | 86.7 | 85.2 | 80.5 | failed the criteria | 87.7 | 83.0 | 80.5 | 81.9 | 81.5 | – | 102.4 | 98.8 | – | – | – | 49.3 | 108.1 | –
